Measured values published in patent publication US11999758B2, “Inhibitors of the YAP/TAZ-TEAD interaction and their use in the treatment of cancer” (INVENTIVA, priority 2018, dated 2024).
pIC50: −log10 of the molar value. Counter-ions that a name gives are not always drawn.

Molecular target: T1, YAP-TEAD interaction (Homo sapiens, UniProt P28347)
T1 construct: expressed in transfected cells; host or cells: HEK293 GripTite 293 MSR (Invitrogen R795-07)
Experiment: Cell-based TEAD-GAL4 transactivation assay (luciferase reporter)
Details: HEK293 cells transfected with TEAD1-Gal4, YAP mutant (S127A, S397A) and luciferase reporter, compounds 0.1 μM to 30 μM; for Emax: HEK293, 24 h, read-out: TEAD-GAL4 Transactivation activity Max Act
Description: To identify inhibitors of YAP-TEAD interaction, a transient transactivation assay was carried out on HEK293 cell line (HEK293 GripTite™ 293 MSR (Invitrogen R795-07)) using plasmids containing the full length TEAD1 sequences, the full length YAP mutant (S127A, S397A) and a luciferase gene reporter. All expression constructs were performed into a pSG5 backbone plasmid in which the SV40 promoter was replaced by the CMV promoter. The TEAD1 construct was prepared by cloning the full-length human TEAD1 cDNA in fusion with the Gal4 DNA Binding Domain (AA 1-148) into pSG5_CMV to create the TEAD1 (FL)_hum_pSG5Gal4_CMV. The full-length YAP mutant (S127A, S397A) was also cloned into pSG5_CMV to create the YAP (FL)_hum_pSG5_mutS127A_S397A_CMV. The reporter plasmid GAL4(5×RE)_TK(−105/+56)_pGL3-Basic contains 5 copies of the GAL4 responsive element (5′-TCGGAGGACAGTACTCC-3′) upstream of the thymidine kinase (TK) promoter (−105/+56) inserted in a pGL3-Basic vector. To evaluate the selectivity of our compounds in blocking the YAP-TEAD interaction, a counter-screening protein-protein interaction transactivation assay was also established. Briefly, two other expression plasmids, the pBD-P53 which expresses the P53 (AA 72-390) in fusion with Gal4 and the pAD-SV40T which expresses the SV40 large T antigen (AA 84-708,AgT), were created. HEK293 cells were seeded at 5×10^4 cells/well in 96 well plates (assay plates) in DMEM medium containing 4.5 g/L D-glucose, 10% high inactivated (HI) fetal bovine serum 1% Glutamax, 1% non-essential amino acid and 1% sodium pyruvate and 0.5% penicillin/streptomycin at 37° C. in a humidified atmosphere of 8% CO2. After 24 h, transfections were performed using Jet-PEI as transfectant (101B-010 Polyplus Transfection), according to the instructions of the manufacturer (N/P=10) and a ratio YAP/TEAD=10 (per well: 50 ng of YAP(FL), 5 ng of TEAD(FL) and 50 ng of reporter plasmid). Six hours after cell transfection, the plates (‘assay plate’) were washed with 100 μl PBS per well and cells were treated with compounds in semi-log from 0.1 μM to 30 μM or DMSO 0.5% as control in DMEM, 4.5 g/L D-Glucose without phenol red, 0.3% BSA, 1% glutamax, 1% NEAA, 1% sodium pyruvate. 24 h later, the luciferase activity was determined after addition of 100 μl of Steady Glo™ luciferase assay system (Promega E2550) according to the manufacturer's directions. Luciferase activity in cell extracts was measured by reading luminescence using the Envision device.
The cellular response was determined by fitting the concentration response curves using a 3-parameter curve fit equation and determining the concentration that inhibited the luciferase activity by 50%.

T1 sequence (P28347 whole entry): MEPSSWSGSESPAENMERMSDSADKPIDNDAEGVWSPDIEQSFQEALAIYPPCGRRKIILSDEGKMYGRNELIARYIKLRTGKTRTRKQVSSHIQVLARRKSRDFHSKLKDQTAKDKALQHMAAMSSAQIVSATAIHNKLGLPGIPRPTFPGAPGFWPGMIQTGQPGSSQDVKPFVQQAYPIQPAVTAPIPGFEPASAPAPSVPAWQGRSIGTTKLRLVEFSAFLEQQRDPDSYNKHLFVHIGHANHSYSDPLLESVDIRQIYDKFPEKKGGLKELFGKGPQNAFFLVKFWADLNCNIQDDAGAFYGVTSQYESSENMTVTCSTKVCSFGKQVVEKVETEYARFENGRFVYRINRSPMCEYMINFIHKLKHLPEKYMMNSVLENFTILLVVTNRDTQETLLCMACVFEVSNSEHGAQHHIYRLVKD

Row | SMILES | Emax [%] | pIC50 (24 h) | TEAD-GAL4 Transactivation activity Max Act (24 h) [%]
1 | COc1ccc2c(c1)C(N(CC(C)C)/N=C/c1ccc(B(O)O)c(OC)c1)=NS2(=O)=O [Ex 2, [4-[(E)-[isobutyl-(5-methoxy-1,1-dioxo-1,2-benzothiazol-3-yl)hydrazono]methyl]-2-methoxy-phenyl]boronic acid] | 95 | 5.64 | 
2 | COc1cc(/C=N/N(CC(C)C)c2ncnc3cc(F)ccc23)ccc1B(O)O [Ex 18, [4-[(E)-[(7-fluoroquinazolin-4-yl)-isobutyl-hydrazono]methyl]-2-methoxyphenyl] boronic acid] | 80 | 5.66 | 
3 | COc1cc(C2=NN(c3ncnc4c(OC)cccc34)C(C)CC2)ccc1B(O)O (single isomer, unassigned; isomer 2) [Ex125, [2-methoxy-4-[2-(8-methoxyquinazolin-4-yl)-3-methyl-4,5-dihydro-3H-pyridazin-6-yl]phenyl]boronic acid (isomer 2)] |  | 5.45 | 86
4 | CN(/N=C/c1ccc2c(c1)COB2O)c1ncnc2c1[nH]c(=O)n2C1CC(O)C1 (stereo not shown) [Ex109, 6-[[(E)-(1-hydroxy-3H-2,1-benzoxaborol-5-yl)methyleneamino]-methyl-amino]-9-(3-hydroxycyclobutyl)-7H-purin-8-one hydrochloride] | 86 | 5.78 | 
5 | CCN(/N=C/c1ccc2c(c1)COB2O)c1nc(C)nc2ccsc12 [Ex 45, N-ethyl-N-[(E)-(1-hydroxy-3H-2,1-benzoxaborol-5-yl)methyleneamino]-2-methyl-thieno[3,2-d]pyrimidin-4-amine] | 63 | 5.99 | 
6 | Cc1csc2c(N3N=C(c4ccc5c(c4)COB5O)CCC3C)ncnc12 (single isomer, unassigned; (+)) [Ex119, (+) 4-[6-(1-hydroxy-3H-2,1-benzoxaborol-5-yl)-3-methyl-4,5-dihydro-3H-pyridazin-2-yl]-7-methyl-thieno[3,2-d]pyrimidine] | 77 | 6.37 | 
7 | COc1cc(C2=NN(c3ncnc4ccsc34)C(C)CC2)ccc1B(O)O (stereo not shown) [Ex72, [2-methoxy-4-(3-methyl-2-thieno[3,2-d]pyrimidin-4-yl-4,5-dihydro-3H-pyridazin-6-yl)phenyl]boronic acid] | 85 | 5.73 | 
8 | CCN(/N=C/c1ccc(B(O)O)c(OC)c1)c1ncnc2c(C)csc12 [Ex62, [4-[(E)-[ethyl-(7-methylthieno[3,2-d]pyrimidin-4-yl)hydrazono]methyl]-2-methoxy-phenyl]boronic acid] | 58 | 6.00 | 
9 | COc1cc(/C=N/N(CC(C)C)C2=NS(=O)(=O)c3cc(C#N)ccc32)ccc1B(O)O [Ex 10, [4-[(E)-[(6-cyano-1,1-dioxo-1,2-benzothiazol-3-yl)-isobutyl-hydrazono]-methyl]-2-methoxy-phenyl]boronic acid] | 78 | 5.36 | 
10 | CCN(/N=C/c1ccc2c(c1)COB2O)c1ncnc2c(C(=O)N(C)C)csc12 [Ex113, 4-[ethyl-[(E)-(1-hydroxy-3H-2,1-benzoxaborol-5-yl)methyleneamino]-amino]-N,N-dimethyl-thieno[3,2-d]pyrimidine-7-carboxamide] | 70 | 5.28 | 
11 | CC(C)CN(/N=C/c1ccc2c(c1)C(C)OB2O)C1=NS(=O)(=O)c2ccccc21 (stereo not shown) [Ex 49, N-[(E)-(1-hydroxy-3-methyl-3H-2,1-benzoxaborol-5-yl)methyleneamino]-N-isobutyl-1,1-dioxo-1,2-benzothiazol-3-amine] | 88 | 5.33 | 
12 | CCN(/N=C/c1ccc(B(O)O)c(OC)c1)c1ncnc2occc12 [Ex65, [4-[(E)-[ethyl(furo[2,3-d]pyrimidin-4-yl)hydrazono]methyl]-2-methoxy-phenyl]boronic acid] | 92 | 5.70 | 
13 | CCN(/N=C/c1ccc2c(c1)COB2O)c1ncnc2cc(C)sc12 [Ex90, N-ethyl-N-[(E)-(1-hydroxy-3H-2,1-benzoxaborol-5-yl)methyleneamino]-6-methyl-thieno[3,2-d]pyrimidin-4-amine] | 83 | 5.90 | 
14 | CCCCN(CCCC)C(=O)c1csc2c(N(CC)/N=C/c3ccc4c(c3)COB4O)ncnc12 [Ex114, N,N-dibutyl-4-[ethyl-[(E)-(1-hydroxy-3H-2,1-benzoxaborol-5-yl)methyleneamino]amino]thieno[3,2-d]pyrimidine-7-carboxamide] | 83 | 5.76 | 
15 | CCN(/N=C/c1ccc2c(c1)COB2O)c1ncnc2cn[nH]c12 [Ex78, N-ethyl-N-[(E)-(1-hydroxy-3H-2,1-benzoxaborol-5-yl)methyleneamino]-1H-pyrazolo[4,3-d]pyrimidin-7-amine] | 75 | 5.65 | 
16 | Cc1csc2c(N(CCO)/N=C/c3ccc4c(c3)COB4O)ncnc12 [Ex97, 2-[[(E)-(1-hydroxy-3H-2,1-benzoxaborol-5-yl)methyleneamino]-(7-methylthieno[3,2-d]pyrimidin-4-yl)amino]ethanol] | 79 | 6.18 | 
17 | COc1cc(/C=N/N(C)c2cc(C)cnn2)ccc1B(O)O [Ex 59, [2-methoxy-4-[(E)-[methyl-(5-methylpyridazin-3-yl)hydrazono]methyl]-phenyl] boronic acid] | 71 |  | 
18 | COc1cc(/C=N/N(CC(C)C)c2ncnc3cc(C)sc23)ccc1B(O)O [Ex69, [4-[(E)-[isobutyl-(6-methylthieno[3,2-d]pyrimidin-4-yl)hydrazono]methyl]-2-methoxy-phenyl]boronic acid] | 92 | 5.63 | 
19 | COc1cc(/C=N/N(CC(C)C)C2=NS(=O)(=O)c3ccc(C)cc32)ccc1B(O)O [Ex 7, [4-[(E)-[isobutyl-(5-methyl-1,1-dioxo-1,2-benzothiazol-3-yl)hydrazono]-methyl]-2-methoxy-phenyl]boronic acid] | 95 | 5.46 | 
20 | COCCCN(/N=C/c1ccc2c(c1)COB2O)c1ncnc2nc(SC)sc12 [Ex96, N-[(E)-(1-hydroxy-3H-2,1-benzoxaborol-5-yl)methyleneamino]-N-(3-methoxypropyl)-2-methylsulfanyl-thiazolo[4,5-d]pyrimidin-7-amine] | 87 | 7.00 | 
21 | COCCN(/N=C/c1ccc(B(O)O)c(OC)c1)c1ncnc2ccsc12 [Ex70, [2-methoxy-4-[(E)-[2-methoxyethyl(thieno[3,2-d]pyrimidin-4-yl) hydrazono]methyl]phenyl]boronic acid] | 87 | 5.73 | 
22 | Cc1ccc2c(c1)C(N(CC(C)C)/N=C/c1ccc3c(c1)COB3O)=NS2(=O)=O [Ex 29, N-[(E)-(1-hydroxy-3H-2,1-benzoxaborol-5-yl)methyleneamino]-N-isobutyl-5-methyl-1,1-dioxo-1,2-benzothiazol-3-amine] | 91 |  | 
23 | COc1cc(C2=NN(C3=NS(=O)(=O)c4ccccc43)CC(C)(C)C2)ccc1B(O)O [Ex 57, [4-[2-(1,1-dioxo-1,2-benzothiazol-3-yl)-4,4-dimethyl-3,5-dihydro-pyridazin-6-yl]-2-methoxy-phenyl]boronic acid] | 84 | 5.51 | 
24 | COCCOc1ccc2c(c1)C(N(CC(C)C)/N=C/c1ccc(B(O)O)c(OC)c1)=NS2(=O)=O [Ex 9, [4-[(E)-[isobutyl-[5-(2-methoxyethoxy)-1,1-dioxo-1,2-benzothiazol-3-yl]hydrazono]methyl]-2-methoxy-phenyl]boronic acid] | 98 | 5.63 | 
